The NIST ThermoML archive (doi:10.1016/j.tca.2014.05.028)
± gives the expanded uncertainty stated by the source.

Assay: xn = mol fraction of the nth substance listed
Conditions: 101 kPa, Liquid; for viscosity: Falling or rolling sphere viscometry; for mass density: Vibrating tube method

`CCC[N+]1(C)CCCC1.[Br-]` [1-methyl-1-propylpyrrolidinium bromide] + O showed a viscosity (323.15 K, x1 = 0.0315) of 0.865 ± 0.052 mPa·s, a viscosity (323.15 K, x1 = 0.0664) of 1.431 ± 0.087 mPa·s and a viscosity (323.15 K, x1 = 0.0983) of 2.372 ± 0.14 mPa·s. The viscosity (323.15 K, x1 = 0.1376) was 3.542 ± 0.21 mPa·s, the viscosity (323.15 K, x1 = 0.1685) was 4.937 ± 0.3 mPa·s and the viscosity (323.15 K, x1 = 0.2138) was 7.49 ± 0.45 mPa·s. It also gave a viscosity (323.15 K, x1 = 0.2382) of 9.11 ± 0.55 mPa·s, a viscosity (323.15 K, x1 = 0.27) of 11.75 ± 0.71 mPa·s and a viscosity (323.15 K, x1 = 0.3143) of 15.69 ± 0.95 mPa·s. It also gave a viscosity (323.15 K, x1 = 0.3535) of 20.44 ± 1.2 mPa·s, a mass density (323.15 K, x1 = 0.0315) of 1048.87 ± 0.39 kg/m3 and a mass density (323.15 K, x1 = 0.0664) of 1097.37 ± 0.33 kg/m3. The mass density (323.15 K, x1 = 0.0983) was 1131.54 ± 0.29 kg/m3, the mass density (323.15 K, x1 = 0.1376) was 1161.28 ± 0.28 kg/m3 and the mass density (323.15 K, x1 = 0.1685) was 1179.46 ± 0.27 kg/m3. It also gave a mass density (323.15 K, x1 = 0.2138) of 1199.83 ± 0.29 kg/m3, a mass density (323.15 K, x1 = 0.2382) of 1208.53 ± 0.3 kg/m3 and a mass density (323.15 K, x1 = 0.27) of 1218.61 ± 0.31 kg/m3. It also gave a mass density (323.15 K, x1 = 0.3143) of 1228.44 ± 0.34 kg/m3, a mass density (323.15 K, x1 = 0.3535) of 1235.27 ± 0.37 kg/m3 and a mass density (323.15 K, x1 = 1) of 1240 ± 1.4 kg/m3. It also gave a viscosity (328.15 K, x1 = 0.0315) of 0.771 ± 0.047 mPa·s, a viscosity (328.15 K, x1 = 0.0664) of 1.254 ± 0.076 mPa·s and a viscosity (328.15 K, x1 = 0.0983) of 2.085 ± 0.13 mPa·s. The viscosity (328.15 K, x1 = 0.1376) was 3.021 ± 0.18 mPa·s, the viscosity (328.15 K, x1 = 0.1685) was 4.183 ± 0.25 mPa·s and the viscosity (328.15 K, x1 = 0.2138) was 6.287 ± 0.38 mPa·s. For the same compound, the viscosity (328.15 K, x1 = 0.2382) was 7.586 ± 0.46 mPa·s, the viscosity (328.15 K, x1 = 0.27) was 9.732 ± 0.59 mPa·s and the viscosity (328.15 K, x1 = 0.3143) was 12.85 ± 0.78 mPa·s. The viscosity (328.15 K, x1 = 0.3535) was 16.54 ± 1 mPa·s, the mass density (328.15 K, x1 = 0.0315) was 1045.65 ± 0.39 kg/m3 and the mass density (328.15 K, x1 = 0.0664) was 1094.2 ± 0.33 kg/m3. The mass density (328.15 K, x1 = 0.0983) was 1128.16 ± 0.29 kg/m3, the mass density (328.15 K, x1 = 0.1376) was 1157.76 ± 0.28 kg/m3 and the mass density (328.15 K, x1 = 0.1685) was 1175.88 ± 0.27 kg/m3. It also gave a mass density (328.15 K, x1 = 0.2138) of 1196.26 ± 0.29 kg/m3, a mass density (328.15 K, x1 = 0.2382) of 1205 ± 0.29 kg/m3 and a mass density (328.15 K, x1 = 0.27) of 1215.12 ± 0.31 kg/m3. It also gave a mass density (328.15 K, x1 = 0.3143) of 1225.02 ± 0.34 kg/m3, a mass density (328.15 K, x1 = 0.3535) of 1231.95 ± 0.36 kg/m3 and a mass density (328.15 K, x1 = 1) of 1236.08 ± 1.4 kg/m3. The viscosity (333.15 K, x1 = 0.0315) was 0.695 ± 0.042 mPa·s, the viscosity (333.15 K, x1 = 0.0664) was 1.112 ± 0.067 mPa·s and the viscosity (333.15 K, x1 = 0.0983) was 1.841 ± 0.11 mPa·s. It also gave a viscosity (333.15 K, x1 = 0.1376) of 2.61 ± 0.16 mPa·s, a viscosity (333.15 K, x1 = 0.1685) of 3.597 ± 0.22 mPa·s and a viscosity (333.15 K, x1 = 0.2138) of 5.348 ± 0.32 mPa·s. For the same compound, the viscosity (333.15 K, x1 = 0.2382) was 6.425 ± 0.39 mPa·s, the viscosity (333.15 K, x1 = 0.27) was 8.189 ± 0.5 mPa·s and the viscosity (333.15 K, x1 = 0.3143) was 10.73 ± 0.65 mPa·s. The viscosity (333.15 K, x1 = 0.3535) was 13.7 ± 0.83 mPa·s, the mass density (333.15 K, x1 = 0.0315) was 1041.46 ± 0.38 kg/m3 and the mass density (333.15 K, x1 = 0.0664) was 1090.9 ± 0.33 kg/m3. For the same compound, the mass density (333.15 K, x1 = 0.0983) was 1124.72 ± 0.29 kg/m3, the mass density (333.15 K, x1 = 0.1376) was 1154.2 ± 0.28 kg/m3 and the mass density (333.15 K, x1 = 0.1685) was 1172.28 ± 0.27 kg/m3. For the same compound, the mass density (333.15 K, x1 = 0.2138) was 1192.68 ± 0.29 kg/m3, the mass density (333.15 K, x1 = 0.2382) was 1201.44 ± 0.29 kg/m3 and the mass density (333.15 K, x1 = 0.27) was 1211.61 ± 0.31 kg/m3. It also gave a mass density (333.15 K, x1 = 0.3143) of 1221.59 ± 0.33 kg/m3, a mass density (333.15 K, x1 = 0.3535) of 1228.68 ± 0.36 kg/m3 and a mass density (333.15 K, x1 = 1) of 1232.19 ± 1.4 kg/m3. For the same compound, the viscosity (338.15 K, x1 = 0.0315) was 0.64 ± 0.039 mPa·s, the viscosity (338.15 K, x1 = 0.0664) was 1.01 ± 0.061 mPa·s and the viscosity (338.15 K, x1 = 0.0983) was 1.651 ± 0.1 mPa·s. For the same compound, the viscosity (338.15 K, x1 = 0.1376) was 2.311 ± 0.14 mPa·s, the viscosity (338.15 K, x1 = 0.1685) was 3.174 ± 0.19 mPa·s and the viscosity (338.15 K, x1 = 0.2138) was 4.677 ± 0.28 mPa·s. For the same compound, the viscosity (338.15 K, x1 = 0.2382) was 5.592 ± 0.34 mPa·s, the viscosity (338.15 K, x1 = 0.27) was 7.083 ± 0.43 mPa·s and the viscosity (338.15 K, x1 = 0.3143) was 9.191 ± 0.56 mPa·s. The viscosity (338.15 K, x1 = 0.3535) was 11.65 ± 0.71 mPa·s, the mass density (338.15 K, x1 = 0.0315) was 1036.23 ± 0.38 kg/m3 and the mass density (338.15 K, x1 = 0.0664) was 1087.31 ± 0.33 kg/m3. For the same compound, the mass density (338.15 K, x1 = 0.0983) was 1121.23 ± 0.29 kg/m3, the mass density (338.15 K, x1 = 0.1376) was 1150.6 ± 0.27 kg/m3 and the mass density (338.15 K, x1 = 0.1685) was 1168.66 ± 0.27 kg/m3. It also gave a mass density (338.15 K, x1 = 0.2138) of 1189.07 ± 0.28 kg/m3, a mass density (338.15 K, x1 = 0.2382) of 1197.87 ± 0.29 kg/m3 and a mass density (338.15 K, x1 = 0.27) of 1208.09 ± 0.31 kg/m3. For the same compound, the mass density (338.15 K, x1 = 0.3143) was 1218.14 ± 0.33 kg/m3, the mass density (338.15 K, x1 = 0.3535) was 1225.35 ± 0.36 kg/m3 and the mass density (338.15 K, x1 = 1) was 1228.32 ± 1.3 kg/m3. It also gave a viscosity (343.15 K, x1 = 0.0315) of 0.574 ± 0.035 mPa·s, a viscosity (343.15 K, x1 = 0.0664) of 0.881 ± 0.053 mPa·s and a viscosity (343.15 K, x1 = 0.0983) of 1.326 ± 0.08 mPa·s. For the same compound, the viscosity (343.15 K, x1 = 0.1376) was 1.931 ± 0.12 mPa·s, the viscosity (343.15 K, x1 = 0.1685) was 2.763 ± 0.17 mPa·s and the viscosity (343.15 K, x1 = 0.2138) was 4.018 ± 0.24 mPa·s. For the same compound, the viscosity (343.15 K, x1 = 0.2382) was 4.784 ± 0.29 mPa·s, the viscosity (343.15 K, x1 = 0.27) was 6.011 ± 0.36 mPa·s and the viscosity (343.15 K, x1 = 0.3143) was 7.777 ± 0.47 mPa·s. For the same compound, the viscosity (343.15 K, x1 = 0.3535) was 9.762 ± 0.59 mPa·s, the mass density (343.15 K, x1 = 0.0315) was 1030.46 ± 0.38 kg/m3 and the mass density (343.15 K, x1 = 0.0664) was 1083.03 ± 0.34 kg/m3. The mass density (343.15 K, x1 = 0.0983) was 1117.67 ± 0.29 kg/m3, the mass density (343.15 K, x1 = 0.1376) was 1146.98 ± 0.27 kg/m3 and the mass density (343.15 K, x1 = 0.1685) was 1165.01 ± 0.27 kg/m3. For the same compound, the mass density (343.15 K, x1 = 0.2138) was 1185.45 ± 0.28 kg/m3, the mass density (343.15 K, x1 = 0.2382) was 1194.28 ± 0.29 kg/m3 and the mass density (343.15 K, x1 = 0.27) was 1204.56 ± 0.31 kg/m3. For the same compound, the mass density (343.15 K, x1 = 0.3143) was 1214.68 ± 0.33 kg/m3, the mass density (343.15 K, x1 = 0.3535) was 1221.99 ± 0.36 kg/m3 and the mass density (343.15 K, x1 = 1) was 1224.48 ± 1.3 kg/m3.
